Reference: ChEMBL document CHEMBL1201862, “PubChem BioAssay data set” (2004)
Active and inactive are the calls of the source. No rule for the calls is given here.

Experiments:
Assay type in all cases: functional
[1] = target: Tyrosine-protein kinase FRK (Homo sapiens, UniProt P42685);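 also: FRK tested as one member of a kinome panel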
[2] = target: T1, Homeodomain-interacting protein kinase 4 (Homo sapiens, UniProt Q8NE63)
T1 sequence (Q8NE63 whole entry): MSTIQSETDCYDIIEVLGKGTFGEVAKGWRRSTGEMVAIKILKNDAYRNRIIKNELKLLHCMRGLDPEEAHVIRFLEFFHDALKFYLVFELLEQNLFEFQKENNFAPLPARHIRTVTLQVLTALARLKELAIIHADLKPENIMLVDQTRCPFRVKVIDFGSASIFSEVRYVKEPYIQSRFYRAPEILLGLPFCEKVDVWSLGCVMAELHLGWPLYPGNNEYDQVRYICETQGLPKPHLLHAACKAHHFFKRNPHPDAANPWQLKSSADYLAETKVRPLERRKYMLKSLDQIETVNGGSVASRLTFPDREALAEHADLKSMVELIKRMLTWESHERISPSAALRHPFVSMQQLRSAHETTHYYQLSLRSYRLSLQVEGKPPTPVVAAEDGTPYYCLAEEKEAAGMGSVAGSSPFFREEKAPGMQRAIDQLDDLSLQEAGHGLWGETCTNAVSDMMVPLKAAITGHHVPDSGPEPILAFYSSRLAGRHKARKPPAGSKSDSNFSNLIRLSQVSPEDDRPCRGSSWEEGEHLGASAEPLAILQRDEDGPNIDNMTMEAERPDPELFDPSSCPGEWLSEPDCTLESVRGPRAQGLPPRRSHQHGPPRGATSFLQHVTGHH

[3] = target: Serine/threonine-protein kinase 3 (Homo sapiens, UniProt Q13188);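 also: measured as one member of a kinome-wide kinase panel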
Sequence of Serine/threonine-protein kinase 3 (Q13188 whole entry): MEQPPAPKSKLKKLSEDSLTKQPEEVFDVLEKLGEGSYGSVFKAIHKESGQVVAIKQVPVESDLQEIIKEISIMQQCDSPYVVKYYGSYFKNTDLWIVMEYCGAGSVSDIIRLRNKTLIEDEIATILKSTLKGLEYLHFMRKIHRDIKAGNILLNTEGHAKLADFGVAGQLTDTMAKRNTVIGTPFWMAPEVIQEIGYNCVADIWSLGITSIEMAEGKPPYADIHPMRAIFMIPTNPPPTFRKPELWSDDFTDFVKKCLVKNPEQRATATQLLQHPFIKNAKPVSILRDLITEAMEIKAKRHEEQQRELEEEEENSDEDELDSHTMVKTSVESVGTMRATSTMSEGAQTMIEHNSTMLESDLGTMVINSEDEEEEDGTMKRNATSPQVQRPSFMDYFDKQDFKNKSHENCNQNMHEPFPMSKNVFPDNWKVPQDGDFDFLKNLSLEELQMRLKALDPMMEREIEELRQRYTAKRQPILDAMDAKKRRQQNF

[4] = target: T2, Serine/threonine-protein kinase TAO1 (Homo sapiens, UniProt Q7L7X3)
T2 sequence (Q7L7X3 whole entry): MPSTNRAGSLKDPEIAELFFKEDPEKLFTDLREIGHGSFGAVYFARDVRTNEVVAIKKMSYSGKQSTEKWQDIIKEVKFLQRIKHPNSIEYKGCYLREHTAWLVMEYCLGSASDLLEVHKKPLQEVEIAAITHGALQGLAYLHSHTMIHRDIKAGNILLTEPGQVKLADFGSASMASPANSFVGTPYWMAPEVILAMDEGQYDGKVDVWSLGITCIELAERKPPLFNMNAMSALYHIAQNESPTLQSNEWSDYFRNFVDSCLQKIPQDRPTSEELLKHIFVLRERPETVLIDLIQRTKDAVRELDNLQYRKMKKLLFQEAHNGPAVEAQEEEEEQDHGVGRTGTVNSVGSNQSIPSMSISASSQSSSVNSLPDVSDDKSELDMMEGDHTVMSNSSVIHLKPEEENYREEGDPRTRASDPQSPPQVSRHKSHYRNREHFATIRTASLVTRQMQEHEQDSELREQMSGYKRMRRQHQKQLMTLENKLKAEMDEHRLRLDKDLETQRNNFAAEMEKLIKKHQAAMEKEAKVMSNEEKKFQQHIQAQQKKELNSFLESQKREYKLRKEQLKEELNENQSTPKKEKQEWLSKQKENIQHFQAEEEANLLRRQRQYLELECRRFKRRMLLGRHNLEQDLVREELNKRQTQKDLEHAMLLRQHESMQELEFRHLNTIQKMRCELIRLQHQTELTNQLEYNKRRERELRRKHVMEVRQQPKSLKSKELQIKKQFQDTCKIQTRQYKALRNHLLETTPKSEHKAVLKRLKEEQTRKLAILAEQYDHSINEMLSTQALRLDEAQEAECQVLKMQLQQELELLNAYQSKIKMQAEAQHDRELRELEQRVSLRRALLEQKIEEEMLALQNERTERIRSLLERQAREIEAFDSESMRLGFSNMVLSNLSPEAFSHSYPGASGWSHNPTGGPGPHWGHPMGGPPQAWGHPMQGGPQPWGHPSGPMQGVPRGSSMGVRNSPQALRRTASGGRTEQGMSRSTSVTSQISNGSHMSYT

[5] = target: Protein kinase C gamma type (Homo sapiens, UniProt P05129)
[6] = target: Fibroblast growth factor receptor 1 (Homo sapiens, UniProt P11362)
Sequence of Fibroblast growth factor receptor 1 (P11362 whole entry): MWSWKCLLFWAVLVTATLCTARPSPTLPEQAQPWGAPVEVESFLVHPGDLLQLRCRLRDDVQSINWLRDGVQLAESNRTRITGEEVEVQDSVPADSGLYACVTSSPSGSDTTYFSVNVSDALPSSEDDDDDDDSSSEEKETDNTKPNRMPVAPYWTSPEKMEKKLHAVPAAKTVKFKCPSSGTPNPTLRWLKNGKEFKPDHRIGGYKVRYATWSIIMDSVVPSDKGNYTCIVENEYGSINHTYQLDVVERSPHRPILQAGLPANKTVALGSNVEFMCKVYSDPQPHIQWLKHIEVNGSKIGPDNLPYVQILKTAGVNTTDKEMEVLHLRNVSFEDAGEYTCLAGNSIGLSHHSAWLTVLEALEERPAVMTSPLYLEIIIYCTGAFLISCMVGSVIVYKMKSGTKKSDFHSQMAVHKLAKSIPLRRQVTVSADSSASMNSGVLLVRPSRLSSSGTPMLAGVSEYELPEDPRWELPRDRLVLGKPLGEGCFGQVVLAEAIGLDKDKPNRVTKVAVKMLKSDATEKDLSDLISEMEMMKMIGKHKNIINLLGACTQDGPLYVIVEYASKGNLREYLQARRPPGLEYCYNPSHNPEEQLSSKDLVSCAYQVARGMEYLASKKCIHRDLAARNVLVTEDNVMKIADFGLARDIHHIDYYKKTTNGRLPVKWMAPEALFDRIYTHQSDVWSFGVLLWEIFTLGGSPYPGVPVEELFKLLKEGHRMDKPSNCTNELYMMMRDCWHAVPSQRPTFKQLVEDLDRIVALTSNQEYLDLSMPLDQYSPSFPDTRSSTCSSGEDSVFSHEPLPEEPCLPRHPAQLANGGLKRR

[7] = target: Calcium/calmodulin-dependent protein kinase type II subunit alpha (Homo sapiens, UniProt Q9UQM7); test: Navigating the Kinome. Panel member name: CAMK2A
Sequence of Calcium/calmodulin-dependent protein kinase type II subunit alpha (Q9UQM7 whole entry): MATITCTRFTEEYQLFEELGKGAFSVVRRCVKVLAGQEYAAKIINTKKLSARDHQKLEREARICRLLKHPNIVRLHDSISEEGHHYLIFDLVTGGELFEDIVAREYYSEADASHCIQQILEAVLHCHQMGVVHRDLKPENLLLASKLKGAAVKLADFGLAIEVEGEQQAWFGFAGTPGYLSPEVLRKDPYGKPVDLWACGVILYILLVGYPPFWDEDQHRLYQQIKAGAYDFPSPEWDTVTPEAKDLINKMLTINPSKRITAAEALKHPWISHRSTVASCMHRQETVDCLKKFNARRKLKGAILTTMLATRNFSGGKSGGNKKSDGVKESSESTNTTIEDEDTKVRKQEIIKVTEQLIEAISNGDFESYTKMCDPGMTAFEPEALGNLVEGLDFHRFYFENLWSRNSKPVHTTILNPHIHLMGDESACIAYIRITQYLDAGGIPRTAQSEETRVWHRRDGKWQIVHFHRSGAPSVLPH

[8] = target: T3, Dual specificity tyrosine-phosphorylation-regulated kinase 4 (Homo sapiens, UniProt Q9NR20)
T3 sequence (Q9NR20 whole entry): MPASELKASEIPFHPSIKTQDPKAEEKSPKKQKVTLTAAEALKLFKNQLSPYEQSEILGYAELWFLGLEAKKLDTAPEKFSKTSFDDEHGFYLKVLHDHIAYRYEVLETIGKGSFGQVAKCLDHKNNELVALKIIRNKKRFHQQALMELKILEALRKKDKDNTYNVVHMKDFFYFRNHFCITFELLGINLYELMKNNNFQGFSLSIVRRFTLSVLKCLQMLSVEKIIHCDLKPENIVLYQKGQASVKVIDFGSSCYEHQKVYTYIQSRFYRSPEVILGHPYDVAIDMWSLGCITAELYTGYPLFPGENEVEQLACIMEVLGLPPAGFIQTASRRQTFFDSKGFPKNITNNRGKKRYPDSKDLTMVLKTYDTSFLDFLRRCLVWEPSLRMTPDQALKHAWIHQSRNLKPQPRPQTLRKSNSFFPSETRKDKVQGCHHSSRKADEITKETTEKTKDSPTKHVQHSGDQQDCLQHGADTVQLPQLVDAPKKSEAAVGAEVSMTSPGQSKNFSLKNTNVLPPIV

[9] = target: T4, Serine/threonine-protein kinase 17A (Homo sapiens, UniProt Q9UEE5)
T4 sequence (Q9UEE5 whole entry): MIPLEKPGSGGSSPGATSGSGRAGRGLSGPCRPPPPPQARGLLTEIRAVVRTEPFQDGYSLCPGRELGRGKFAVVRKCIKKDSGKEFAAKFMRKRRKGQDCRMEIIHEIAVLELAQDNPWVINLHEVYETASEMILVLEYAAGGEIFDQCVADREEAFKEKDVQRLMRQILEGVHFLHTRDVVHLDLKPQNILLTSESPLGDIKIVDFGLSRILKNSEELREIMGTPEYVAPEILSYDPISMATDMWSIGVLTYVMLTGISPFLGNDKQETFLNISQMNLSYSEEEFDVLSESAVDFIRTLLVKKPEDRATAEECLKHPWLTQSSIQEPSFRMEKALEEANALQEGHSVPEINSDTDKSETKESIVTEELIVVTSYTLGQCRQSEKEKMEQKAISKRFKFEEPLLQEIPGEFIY

[10] = target: Cell division cycle 7-related protein kinase (Homo sapiens, UniProt O00311);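 also: value obtained from a kinome-wide kinase panel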
Sequence of Cell division cycle 7-related protein kinase (O00311 whole entry): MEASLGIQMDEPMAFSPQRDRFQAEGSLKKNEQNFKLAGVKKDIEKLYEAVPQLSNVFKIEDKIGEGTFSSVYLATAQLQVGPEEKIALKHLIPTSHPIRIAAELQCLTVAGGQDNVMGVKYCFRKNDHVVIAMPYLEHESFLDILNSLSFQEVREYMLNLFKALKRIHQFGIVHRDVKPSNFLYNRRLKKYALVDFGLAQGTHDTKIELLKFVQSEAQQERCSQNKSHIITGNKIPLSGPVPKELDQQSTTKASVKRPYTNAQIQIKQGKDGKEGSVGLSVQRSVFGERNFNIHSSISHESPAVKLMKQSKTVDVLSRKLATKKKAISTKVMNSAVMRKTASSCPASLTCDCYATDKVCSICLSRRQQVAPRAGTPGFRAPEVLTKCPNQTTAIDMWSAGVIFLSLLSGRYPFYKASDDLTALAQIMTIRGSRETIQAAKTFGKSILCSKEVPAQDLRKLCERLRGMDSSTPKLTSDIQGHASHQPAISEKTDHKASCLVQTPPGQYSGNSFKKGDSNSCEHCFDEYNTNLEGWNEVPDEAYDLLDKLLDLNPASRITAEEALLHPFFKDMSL

Sequence of Tyrosine-protein kinase FRK (P42685 whole entry): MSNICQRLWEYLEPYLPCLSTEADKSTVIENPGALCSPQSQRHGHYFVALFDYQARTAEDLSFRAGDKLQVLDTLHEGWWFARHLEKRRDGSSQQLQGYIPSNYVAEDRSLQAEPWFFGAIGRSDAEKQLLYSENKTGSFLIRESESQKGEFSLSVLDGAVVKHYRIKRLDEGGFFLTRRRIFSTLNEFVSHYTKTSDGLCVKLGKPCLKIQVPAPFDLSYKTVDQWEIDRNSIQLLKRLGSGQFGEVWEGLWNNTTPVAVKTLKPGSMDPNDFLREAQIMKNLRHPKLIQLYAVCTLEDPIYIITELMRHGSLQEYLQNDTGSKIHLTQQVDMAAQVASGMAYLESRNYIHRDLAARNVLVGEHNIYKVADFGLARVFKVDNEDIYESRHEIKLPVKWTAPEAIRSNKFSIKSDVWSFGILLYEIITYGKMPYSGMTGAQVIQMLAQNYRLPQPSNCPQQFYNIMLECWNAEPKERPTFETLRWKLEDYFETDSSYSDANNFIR

Ki [1] | pKi [1] | Ki [2] | pKi [2] | Ki [3] | Ki [4] | pKi [4] | Ki [5] | pKi [5] | Ki [6] | Ki [8] | pKi [8] | Ki [9] | pKi [9] | Ki [10] | pKi [10] | Structure (SMILES) | Ki [7]
2 µM (active) | 5.7 | 0.398 µM (active) | 6.4 | > 3.16 µM (inactive) | 0.251 µM (active) | 6.6 | 0.251 µM (active) | 6.6 | > 3.98 µM (inactive) | 0.01 µM (active) | 8 | 0.0251 µM (active) | 7.6 | 0.0002 µM (active) | 9.7 | NC(=O)c1cc(-c2ccnc(N)n2)[nH]c1-c1ccc(Cl)cc1Cl | > 7.94 µM (inactive)
0.316 µM (active) | – | 0.0631 µM (active) | – | 0.0126 µM (active) | 0.126 µM (active) | – | 0.0316 µM (active) | – | 0.794 µM (active) | 0.398 µM (active) | – | 0.0158 µM (active) | – | 0.251 µM (active) | – | NC(COc1cncc(-c2ccc3c(c2)C(=Cc2ccco2)C(=O)N3)c1)Cc1c[nH]c2ccccc12 (configuration not stated) | –
– | – | – | – | – | – | – | – | – | – | – | – | – | – | – | – | Cc1ccc(-n2nc(C(C)(C)C)cc2NC(=O)Nc2ccc(OCCN3CCOCC3)c3ccccc23)cc1 [DORAMAPIMOD] | > 3.98 µM (inactive)
